According to the NIST ThermoML archive (doi:10.1021/je100190e):
± gives the expanded uncertainty stated by the source.

Assay: mn = molality of the nth substance listed, in mol/kg
Conditions: 101 kPa, Liquid

Which results are given for N=C(N)NCCC[C@H](N)C(=O)O [L-arginine] + O?
mass density (303.15 K, m1 = 0.0302): 997.1 ± 1 kg/m3; mass density (303.15 K, m1 = 0.0607): 998.6 ± 1 kg/m3; mass density (303.15 K, m1 = 0.0914): 1000.1 ± 1 kg/m3; mass density (303.15 K, m1 = 0.122): 1001.5 ± 1 kg/m3; mass density (303.15 K, m1 = 0.1533): 1003 ± 1 kg/m3; mass density (308.15 K, m1 = 0.0302): 995.5 ± 1.1 kg/m3; mass density (308.15 K, m1 = 0.0607): 997 ± 1.1 kg/m3; mass density (308.15 K, m1 = 0.0914): 998.5 ± 1.1 kg/m3; mass density (308.15 K, m1 = 0.122): 999.9 ± 1.1 kg/m3; mass density (308.15 K, m1 = 0.1533): 1001.4 ± 1.1 kg/m3; mass density (313.15 K, m1 = 0.0302): 993.7 ± 1.1 kg/m3; mass density (313.15 K, m1 = 0.0607): 995.2 ± 1.1 kg/m3; mass density (313.15 K, m1 = 0.0914): 996.7 ± 1.1 kg/m3; mass density (313.15 K, m1 = 0.122): 998.1 ± 1.1 kg/m3; mass density (313.15 K, m1 = 0.1533): 999.6 ± 1.1 kg/m3; mass density (318.15 K, m1 = 0.0302): 991.7 ± 1.2 kg/m3; mass density (318.15 K, m1 = 0.0607): 993.2 ± 1.2 kg/m3; mass density (318.15 K, m1 = 0.0914): 994.7 ± 1.2 kg/m3; mass density (318.15 K, m1 = 0.122): 996.1 ± 1.2 kg/m3; mass density (318.15 K, m1 = 0.1533): 997.6 ± 1.2 kg/m3; mass density (323.15 K, m1 = 0.0302): 989.5 ± 1.2 kg/m3; mass density (323.15 K, m1 = 0.0607): 991 ± 1.2 kg/m3; mass density (323.15 K, m1 = 0.0914): 992.5 ± 1.2 kg/m3; mass density (323.15 K, m1 = 0.122): 993.9 ± 1.2 kg/m3; mass density (323.15 K, m1 = 0.1533): 995.4 ± 1.2 kg/m3

What does the source list for Cl.NCCCC[C@H](N)C(=O)O [L-lysine monohydrochloride] + O?
mass density (303.15 K, m1 = 0.0302): 997.3 ± 1 kg/m3; mass density (303.15 K, m1 = 0.0606): 999 ± 1 kg/m3; mass density (303.15 K, m1 = 0.0913): 1000.7 ± 1 kg/m3; mass density (303.15 K, m1 = 0.1224): 1002.4 ± 1 kg/m3; mass density (303.15 K, m1 = 0.1536): 1004.1 ± 1 kg/m3; mass density (308.15 K, m1 = 0.0302): 995.7 ± 1.1 kg/m3; mass density (308.15 K, m1 = 0.0606): 997.4 ± 1.1 kg/m3; mass density (308.15 K, m1 = 0.0913): 999.1 ± 1.1 kg/m3; mass density (308.15 K, m1 = 0.1224): 1000.8 ± 1.1 kg/m3; mass density (308.15 K, m1 = 0.1536): 1002.5 ± 1.1 kg/m3; mass density (313.15 K, m1 = 0.0302): 993.9 ± 1.1 kg/m3; mass density (313.15 K, m1 = 0.0606): 995.6 ± 1.1 kg/m3; mass density (313.15 K, m1 = 0.0913): 997.3 ± 1.1 kg/m3; mass density (313.15 K, m1 = 0.1224): 999 ± 1.1 kg/m3; mass density (313.15 K, m1 = 0.1536): 1000.7 ± 1.1 kg/m3; mass density (318.15 K, m1 = 0.0302): 991.9 ± 1.2 kg/m3; mass density (318.15 K, m1 = 0.0606): 993.6 ± 1.2 kg/m3; mass density (318.15 K, m1 = 0.0913): 995.3 ± 1.2 kg/m3; mass density (318.15 K, m1 = 0.1224): 997 ± 1.2 kg/m3; mass density (318.15 K, m1 = 0.1536): 998.7 ± 1.2 kg/m3; mass density (323.15 K, m1 = 0.0302): 989.7 ± 1.2 kg/m3; mass density (323.15 K, m1 = 0.0606): 991.4 ± 1.2 kg/m3; mass density (323.15 K, m1 = 0.0913): 993.1 ± 1.2 kg/m3; mass density (323.15 K, m1 = 0.1224): 994.8 ± 1.2 kg/m3; mass density (323.15 K, m1 = 0.1536): 996.4 ± 1.2 kg/m3

For O [water] + Cl.NCCCC[C@H](N)C(=O)O, which mass density (323.15 K, m2 = 0) is on record?
The mass density was 988 ± 1.2 kg/m3.

With O [water] + N[C@@H](Cc1c[nH]cn1)C(=O)O as the compound, how does the mass density (323.15 K, m2 = 0) read?
The mass density was 988 ± 1.2 kg/m3.

With CC(=O)[O-].[Na+] [sodium ethanoate] + O as the compound, how does the mass density (303.15 K, m1 = 1) read?
The mass density was 1032.9 ± 1.2 kg/m3.

And the mass density (308.15 K, m1 = 1)?
Its mass density is 1031.8 ± 1.2 kg/m3.

What about the mass density (313.15 K, m1 = 1) of the same compound?
The mass density was 1029.3 ± 1.3 kg/m3.

And the mass density (318.15 K, m1 = 1)?
The mass density was 1027.5 ± 1.3 kg/m3.

And the mass density (323.15 K, m1 = 1)?
The mass density was 1025.4 ± 1.3 kg/m3.

For CC(=O)[O-].[K+] [potassium ethanoate] + O, which mass density (303.15 K, m1 = 1) is on record?
Its mass density is 1039.7 ± 1.2 kg/m3.

And the mass density (308.15 K, m1 = 1)?
The mass density was 1038.1 ± 1.2 kg/m3.

And the mass density (313.15 K, m1 = 1)?
Its mass density is 1036.1 ± 1.3 kg/m3.

And the mass density (318.15 K, m1 = 1)?
The mass density was 1033.5 ± 1.3 kg/m3.

And the mass density (323.15 K, m1 = 1)?
The mass density was 1032 ± 1.4 kg/m3.

With O [water] + N=C(N)NCCC[C@H](N)C(=O)O as the compound, how does the mass density (323.15 K, m2 = 0) read?
The mass density was 988 ± 1.2 kg/m3.

Which mass density (303.15 K, m1 = 1) does the source give for CC(=O)[O-].CC(=O)[O-].[Ca+2] [calcium acetate] + O here?
The mass density was 1075.1 ± 1.2 kg/m3.

And the mass density (308.15 K, m1 = 1)?
The mass density was 1073.2 ± 1.3 kg/m3.

And the mass density (313.15 K, m1 = 1)?
Its mass density is 1071.6 ± 1.3 kg/m3.

What about the mass density (318.15 K, m1 = 1) of the same compound?
The mass density was 1069.3 ± 1.4 kg/m3.

What about the mass density (323.15 K, m1 = 1) of the same compound?
Its mass density is 1067.1 ± 1.4 kg/m3.

What does the source list for N[C@@H](Cc1c[nH]cn1)C(=O)O [L-histidine] + O?
mass density (303.15 K, m1 = 0.0303): 997.3 ± 1 kg/m3; mass density (303.15 K, m1 = 0.0606): 998.9 ± 1 kg/m3; mass density (303.15 K, m1 = 0.0913): 1000.6 ± 1 kg/m3; mass density (303.15 K, m1 = 0.1221): 1002.2 ± 1 kg/m3; mass density (303.15 K, m1 = 0.1526): 1003.8 ± 1 kg/m3; mass density (308.15 K, m1 = 0.0303): 995.7 ± 1.1 kg/m3; mass density (308.15 K, m1 = 0.0606): 997.3 ± 1.1 kg/m3; mass density (308.15 K, m1 = 0.0913): 999 ± 1.1 kg/m3; mass density (308.15 K, m1 = 0.1221): 1000.6 ± 1.1 kg/m3; mass density (308.15 K, m1 = 0.1526): 1002.2 ± 1.1 kg/m3; mass density (313.15 K, m1 = 0.0303): 993.9 ± 1.1 kg/m3; mass density (313.15 K, m1 = 0.0606): 995.5 ± 1.1 kg/m3; mass density (313.15 K, m1 = 0.0913): 997.2 ± 1.1 kg/m3; mass density (313.15 K, m1 = 0.1221): 998.8 ± 1.1 kg/m3; mass density (313.15 K, m1 = 0.1526): 1000.4 ± 1.1 kg/m3; mass density (318.15 K, m1 = 0.0303): 991.9 ± 1.2 kg/m3; mass density (318.15 K, m1 = 0.0606): 993.5 ± 1.2 kg/m3; mass density (318.15 K, m1 = 0.0913): 995.2 ± 1.2 kg/m3; mass density (318.15 K, m1 = 0.1221): 996.8 ± 1.2 kg/m3; mass density (318.15 K, m1 = 0.1526): 998.4 ± 1.2 kg/m3; mass density (323.15 K, m1 = 0.0303): 989.7 ± 1.2 kg/m3; mass density (323.15 K, m1 = 0.0606): 991.3 ± 1.2 kg/m3; mass density (323.15 K, m1 = 0.0913): 993 ± 1.2 kg/m3; mass density (323.15 K, m1 = 0.1221): 994.6 ± 1.2 kg/m3; mass density (323.15 K, m1 = 0.1526): 996.2 ± 1.2 kg/m3
